The nature of data set [1]: Solubilizing Daunorubicine. Format: physicochemical. The note with it: 2 mg/ml in GENC or RO water. Here is the method:
Required concentration: 2 mg/ml

A short description of data set [2]: Solvent capability: Taxol (Example 28). Format: physicochemical. The conditions noted are these: 0.5 mM in DMSO or in the composition with 17% EtOH. Here is the method:
0.5 mM Taxol solution can be prepared (0.0017 gr in 4 ml) in either DMSO or the enriched nanostructure composition of the present embodiments with 17% EtOH. Absorbance can be detected with a spectrophotometer.

As for `COc1cccc2c1C(=O)c1c(O)c3c(c(O)c1C2=O)C[C@@](O)(C(C)=O)C[C@@H]3O[C@H]1C[C@H](N)[C@H](O)[C@H](C)O1` [Daunorubicine], in data set [1], the dissolution result was “dissolved easily both in the enriched nanostructure composition of the present embodiments and in RO water”.

For the molecule `CC(=O)O[C@H]1C(=O)[C@@]2(C)[C@H]([C@H](OC(=O)c3ccccc3)[C@]3(O)C[C@H](OC(=O)[C@H](O)[C@@H](NC(=O)c4ccccc4)c4ccccc4)C(C)=C1C3(C)C)[C@]1(OC(C)=O)CO[C@@H]1C[C@@H]2O` [Taxol, Paclitaxel], in data set [2], the dissolution result was “dissolved both in DMSO and the enriched nanostructure composition”.

For the origin of these results see patent US20110178182A1, “ENRICHED NANOSTRUCTURE COMPOSITION” (DO-COOP TECHNOLOGIES LTD., priority 2007, published 2011).
